Assay [1] deals with middle cerebral artery occlusion (MCAo). The assay is described as follows: transient MCAo in SD rats, adhesive removal test (ART). It is filed as in vivo, Sprague-Dawley rat. The protocol: Adult male Sprague-Dawley (SD) rats weighing 250-290 g were employed for transient middle cerebral artery occlusion. Rats were anaesthetized with 5% isofluorane and maintained with 2% isofluorane in 70% N2O and 30% O2 using a face mask. 5 mg/kg ketoprofen was given pre-surgery to block pain. Rectal temperature was maintained at 37° C. during surgery with a homeothermic blanket system (Harvard Apparatus™, Holliston, Mass.). The scalp was incised at the midline and the skull was exposed. The skull was thinned with a dental drill at a region ipsilateral to the expected ischemia zone (2 mm posterior and 5 mm lateral from the bregma). A laser probe of the Doppler flowmeter (Perimed™, Jäffälla, Sweden) was placed at this location during surgery to detect cerebral blood flow (CBF) (Nagal et al., 2010). Transient MCAo was induced using a method of intraluminal vascular occlusion described elsewhere (Aarts et al., 2002; Belayev et al., 1996; and Longa et al., 1989). Briefly, a poly-L-lysine coated 3-0 monofilament nylon suture (Harvard Apparatus™, Holliston, Mass.) with a rounded tip was advanced from the left common carotid artery into the internal carotid artery until a sudden drop of CBF was noted, indicating the blockade of the origin of the MCA. The success of induction of ischemia was confirmed by a fall of CBF to less than 25% of baseline level and by neurological assessment scores during MCAo (1 h after the onset). Two hours after MCAo, rats were re-anaesthetized and the suture was removed to allow reperfusion, confirmed by the increase of CBF at the same area.
Peptides were synthesized by PepMetric Technologies™ or GL Biochem™ (Shanghai, China). Peptides were prepared freshly in saline on the day of experiment at a stock concentration of 1 mg/ml. 1 mg/kg peptides were administrated at indicated times (30 min before, 2 h after or 6 h after the onset of ischemia) by a single intravenous injection at rat tails. NIMoEscr or NIMoEsh were injected at 4 h after MCAo onset to randomly chosen rats. For long-term studies, peptides were given 2 h after MCAo onset. Injections of NIMoEscr and NIMoEsh were made, brain damage was assessed and functional evaluations performed in a double-blind manner To examine the delivery of the peptide into the brain, 5 mg/kg FITC-labelled NIMoE or only saline was intravenously injected 1 h before perfusion. The rats were then perfused with PBS followed by fixation solution (4% paraformaldehyde in PBS). Brains were removed, postfixed in fixation solution for 2 h and then soaked in 20% sucrose-PBS buffer at 4° C. for 24 h. After rapid freezing in Tissue-Tek™ embedding medium (Sakura™, Torrance, Calif.) on dry ice, 20 μm sections were cut on a cryostat (Leica™ CM3050, Ontario, Canada) and examined for FITC fluorescence by a laser microscopy (Zeiss™, Axiovert 200).
All animals were tested for neurological function during (1 h after onset) and 24 h after MCAo. Motor, sensory and coordination capacities were evaluated with modified Neurological Severity Scores (NSS) (Watanabe et al., 2004; Bederson et al., 1986). […] Coordination functions were assessed with 3 tests including a foot fault test, edge test and balance beam. Performance in the tests was evaluated on a cumulative scale from 0 to 2 (10 tests), except for two tests (tail suspension and balance beam in which scores ranged from 0 to Sand 0 to 4, respectively). […] The time spent on removing the tape from paw within 2 min was recorded.

A further assay deals with neuronal cultures. In words: LDH assay and PI staining, NMDA excitotoxicity-induced neuronal cell death. In kind it is cell-based, rat. Particulars: for excitotoxicity-induced cell death as measured by LDH release and PI staining: pretreatment, NMDA challenge 1 h, 24 h survival. Here is the method:
For biochemical studies, neurons were seeded in six-well culture plates with a density of 7.5×10^5 cells per well. For LDH assay and cell death detection, 24-well culture plates were used with a neuron density of 2.5×10^5 cells per well. Neurons of 14-17 days in vitro (DIV) were used for experiments. […] HEK 293 cells were maintained in DMEM (Invitrogen™) supplemented with 10% fetal bovine serum and 1% penicillin/streptomycin. For protein expression in cell lines, cells were transfected with Calcium Phosphate Transfection reagent (Promega™, San Luis Obispo, Calif., USA) and used 24 h later as described previously (Yang et al., 2009). The JNK inhibitor, L-JNKI, was purchased from Alexis Biochemicals™ (San Diego, Calif.). Thrombin was obtained from BIOPUR™ (Bubendorf, Switzerland). Other assay reagents without indication were obtained from Sigma™.
Neuronal cultures were challenged with indicated concentrations of NMDA for 1 h, followed by 24 h survival. The release of lactate dehydrogenase (LDH) was measured with an in vitro toxicology assay kit (Sigma™) according to the manufacturer's instructions. Spectrophotometric measurement was performed on a Multilabel Plate Reader (Envision™ 2103, Perkin Elmer™). The LDH reading represents the primary absorbance at a wavelength of 490 nm after subtraction of background absorbance at 690 nm. LDH readings were then converted to a percentage of neuronal death by dividing by the readings from cultures incubated with 1% triton for 15 min representing total LDH. Following the LDH assay, propidium iodide (PI) (Sigma™) was added to the medium at a final concentration of 1 μg/ml and neurons were stained for 30 min at 30° C. After fixation with 4% paraformaldehyde, neurons were washed with 1×PBS and stained with Hoechst™ 33342 (Sigma™). The fluorescence of PI and Hoechst™ were examined with laser microscopy and analyzed with ImageJ™.
(In general: LDH in the medium is a marker of cell lysis.)

The next assay deals with c-jun. The assay is described as follows: NMDA-induced c-jun phosphorylation in neurons. Conditions: neuronal cultures. In kind it is cell-based, rat.
The target of the next assay is T1, JNK3 (Rattus norvegicus, UniProt P49187).
T1 construct: cell lysates were prepared and JNK was immunoprecipitated with specific antibodies; endogenous in cells; host or cells: rat primary neuronal cultures; JNK3 immunoprecipitated from lysate
In words: kinase assay (KA) on JNK3 immunoprecipitated from cell lysates. In kind it is cell-based. Conditions: for JNK3 activity normalized to 0 h: NMDA + NIMoE. The protocol:
JNK activity was measured with an in vitro kinase assay as described elsewhere (see, for e.g.: Khatlani et al., 2007). Briefly, cell lysates were prepared and JNK was immunoprecipitated with specific antibodies. The immnoprecipitates were then resuspended in 1× kinase buffer (Cell Signaling Technology™) supplemented with 200 μM ATP and 250 μg/ml GST-c-jun (1-89), and incubated at 30° C. for 30 min. Reactions were terminated by the addition of SDS-PAGE sample buffer. Phosphorylated c-jun was resolved by SDS-PAGE and detected with anti-p-c-jun.

T1 sequence (P49187 whole entry): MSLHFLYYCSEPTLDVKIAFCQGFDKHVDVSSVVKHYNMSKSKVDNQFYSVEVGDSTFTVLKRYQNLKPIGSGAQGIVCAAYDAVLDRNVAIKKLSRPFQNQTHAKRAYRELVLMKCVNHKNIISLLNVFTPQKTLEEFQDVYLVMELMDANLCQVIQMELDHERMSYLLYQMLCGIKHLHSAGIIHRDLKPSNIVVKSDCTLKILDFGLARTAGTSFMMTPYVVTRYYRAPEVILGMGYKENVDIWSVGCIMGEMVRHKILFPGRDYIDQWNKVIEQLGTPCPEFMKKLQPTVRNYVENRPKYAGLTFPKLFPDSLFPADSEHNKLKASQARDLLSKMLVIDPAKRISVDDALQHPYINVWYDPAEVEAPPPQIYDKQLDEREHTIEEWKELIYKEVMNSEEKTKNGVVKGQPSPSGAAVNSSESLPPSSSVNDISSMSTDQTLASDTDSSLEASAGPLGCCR

“WAAYRTHSVD (listed as Homo sapiens) [NIMoEsh, shorter 10mer of NIMoE, primarily the loop region of motif-E (zD17 196-205)]”: the “somatosensory functions in ART” value in assay [1] (MCAo rats) was “large preservation of somatosensory functions”. Moreover, the “excitotoxicity-induced cell death as measured by LDH release and PI staining” value (shortened to “excitotoxicity-induced cell death”) in the assay with neuronal cultures is reported as “significantly prevented”. In addition, the NMDA-induced c-jun phosphorylation result in the assay with c-jun was “able to prevent”.

Regarding “HRYRWLTDLLSMVTTPAAPM (NIMoEscr scrambled NIMoE) [negative control peptide resulting from a scrambled NIMoE, reference compound]”, the “enhancement of JNK3 activity induced by NMDA” value with JNK3 (neuronal cultures) is “did not selectively block enhancement”. Besides, in assay [1] (scrambled control peptide group), the “adhesive removal test (ART), contralateral side” value came to 10.80 ± 2.06 s. Moreover, the “excitotoxicity-induced cell death” value with neuronal cultures is listed as “no protective effects”.

Turning to “MTPLMWAAYRTHSVDPTRLL (listed as Homo sapiens) [NIMoE, peptide comprising motif-E of zD17, fused to the cell-membrane transduction domain of HIV-1 Tat for cell experiments]”, the “JNK3 activity normalized to 0 h” value with JNK3 (0.5 h) amounted to 90.6±5.3%; with JNK3 (1 h), 47.0±17.6%. Besides, the “JNK3 basal activity” value with JNK3 (neuronal cultures) is listed as “no effect”. Further, in the assay with JNK3 (neuronal cultures), the “enhancement of JNK3 activity induced by NMDA” value is “selectively blocked the enhancement”. For the same sequence, in the assay with JNK3 (pretreatment of cells 1 μM for 2 h), the “JNK3 basal activity, fold change to control” value was 0.89±0.10 fold. Further, the entries for the “adhesive removal test (ART), contralateral side” value in assay [1] (injection +2 h), in assay [1] (injection +4 h) and in assay [1] (injection −0.5 h) were 62.1 ± 8.60 s, 60.83 ± 8.13 s and 48.62 ± 8.24 s, respectively. Further, the “protection of neurons over NMDA concentrations” value in the assay on neuronal cultures (NMDA 10 μM to 100 μM) was “protected neurons against a broad range of NMDA concentrations”. In addition, the “excitotoxicity-induced cell death” value in the assay on neuronal cultures was “significantly prevented”. The NMDA-induced c-jun phosphorylation result in the assay with c-jun is recorded as “able to prevent”.

Source of the values: patent US9458437B2, “Neuroprotective peptides that inhibit interaction between palmitoyl acyl transferase zinc-finger DHHC type containing 17 (zD17) and c-jun N-terminal kinase (JNK)” (The University of British Columbia, priority 2011, dated 2016).
